Test results taken from US20260130395A1, “Water Dispersible Botanical Compositions” (Aquila Black Limited, priority 2021, published 2026).

Key:
[1] = Stability of cannabinoid entourage and Vitamin E components of the powder concentrate by LCMSMS; assay type: physicochemical; conditions: powder stored at 21-25° C.
Experimental: At each time period, 0.05 g of powder was dissolved in 10 ml-15 of ethanol, diluted to fall within the analytical range, and injected into the LCMSMS for analysis.

[2] = Stability of cannabinoid compounds and Vitamin E components in Beverage 1 (AB White) by LCMSMS; assay type: physicochemical; conditions: AB White stored at 8° C.

## CCCCCc1cc2c(c(O)c1C(=O)O)[C@@H]1C=C(C)CC[C@H]1C(C)(C)O2 [D9 THCA, delta-9-tetrahydrocannabinolic acid]
[1]; 0 days
  Stability of Plant-Derived Cannabinoid Compounds in Powder Concentrate: 0.150 mg/g powder
[1]; 1 days
  Stability of Plant-Derived Cannabinoid Compounds in Powder Concentrate: 0.150 mg/g powder
[1]; 2 days
  Stability of Plant-Derived Cannabinoid Compounds in Powder Concentrate: 0.147 mg/g powder
[1]; 3 days
  Stability of Plant-Derived Cannabinoid Compounds in Powder Concentrate: 0.150 mg/g powder
[1]; 5 days
  Stability of Plant-Derived Cannabinoid Compounds in Powder Concentrate: 0.146 mg/g powder
[1]; 8 days
  Stability of Plant-Derived Cannabinoid Compounds in Powder Concentrate: 0.156 mg/g powder
[1]; 9 days
  Stability of Plant-Derived Cannabinoid Compounds in Powder Concentrate: 0.151 mg/g powder
[1]; 10 days
  Stability of Plant-Derived Cannabinoid Compounds in Powder Concentrate: 0.148 mg/g powder
[1]; 11 days
  Stability of Plant-Derived Cannabinoid Compounds in Powder Concentrate: 0.145 mg/g powder
[1]; 12 days
  Stability of Plant-Derived Cannabinoid Compounds in Powder Concentrate: 0.152 mg/g powder
[1]; 15 days
  Stability of Plant-Derived Cannabinoid Compounds in Powder Concentrate: 0.151 mg/g powder
[1]; 16 days
  Stability of Plant-Derived Cannabinoid Compounds in Powder Concentrate: 0.157 mg/g powder
[1]; 17 days
  Stability of Plant-Derived Cannabinoid Compounds in Powder Concentrate: 0.156 mg/g powder
[1]; 18 days
  Stability of Plant-Derived Cannabinoid Compounds in Powder Concentrate: 0.149 mg/g powder
[1]; 19 days
  Stability of Plant-Derived Cannabinoid Compounds in Powder Concentrate: 0.146 mg/g powder
[1]; 22 days
  Stability of Plant-Derived Cannabinoid Compounds in Powder Concentrate: 0.150 mg/g powder
[1]; 23 days
  Stability of Plant-Derived Cannabinoid Compounds in Powder Concentrate: 0.147 mg/g powder
[1]; 24 days
  Stability of Plant-Derived Cannabinoid Compounds in Powder Concentrate: 0.150 mg/g powder
[1]; 25 days
  Stability of Plant-Derived Cannabinoid Compounds in Powder Concentrate: 0.150 mg/g powder
[1]; 26 days
  Stability of Plant-Derived Cannabinoid Compounds in Powder Concentrate: 0.150 mg/g powder
[1]; 29 days
  Stability of Plant-Derived Cannabinoid Compounds in Powder Concentrate: 0.152 mg/g powder
[1]; 30 days
  Stability of Plant-Derived Cannabinoid Compounds in Powder Concentrate: 0.151 mg/g powder
[1]; 60 days
  Stability of Plant-Derived Cannabinoid Compounds in Powder Concentrate: 0.146 mg/g powder
[1]; 90 days
  Stability of Plant-Derived Cannabinoid Compounds in Powder Concentrate: 0.147 mg/g powder
[1]; 120 days
  Stability of Plant-Derived Cannabinoid Compounds in Powder Concentrate: 0.147 mg/g powder
[1]; 150 days
  Stability of Plant-Derived Cannabinoid Compounds in Powder Concentrate: 0.153 mg/g powder
[1]; 180 days
  Stability of Plant-Derived Cannabinoid Compounds in Powder Concentrate: 0.154 mg/g powder
[1]; 210 days
  Stability of Plant-Derived Cannabinoid Compounds in Powder Concentrate: 0.151 mg/g powder
[1]; 240 days
  Stability of Plant-Derived Cannabinoid Compounds in Powder Concentrate: 0.148 mg/g powder
[1]; 270 days
  Stability of Plant-Derived Cannabinoid Compounds in Powder Concentrate: 0.148 mg/g powder
[1]; 300 days
  Stability of Plant-Derived Cannabinoid Compounds in Powder Concentrate: 0.156 mg/g powder
[1]; 330 days
  Stability of Plant-Derived Cannabinoid Compounds in Powder Concentrate: 0.156 mg/g powder
[1]; 360 days
  Stability of Plant-Derived Cannabinoid Compounds in Powder Concentrate: 0.155 mg/g powder
[1]; 390 days
  Stability of Plant-Derived Cannabinoid Compounds in Powder Concentrate: 0.153 mg/g powder
[1]; 420 days
  Stability of Plant-Derived Cannabinoid Compounds in Powder Concentrate: 0.154 mg/g powder
[1]; 450 days
  Stability of Plant-Derived Cannabinoid Compounds in Powder Concentrate: 0.155 mg/g powder
[1]; 480 days
  Stability of Plant-Derived Cannabinoid Compounds in Powder Concentrate: 0.149 mg/g powder
[1]; 510 days
  Stability of Plant-Derived Cannabinoid Compounds in Powder Concentrate: 0.154 mg/g powder
[1]; 540 days
  Stability of Plant-Derived Cannabinoid Compounds in Powder Concentrate: 0.154 mg/g powder
[1]; 570 days
  Stability of Plant-Derived Cannabinoid Compounds in Powder Concentrate: 0.148 mg/g powder
[2]; 0 days
  Stability of Plant-Derived Cannabinoid Compounds in AB White, 8° C.: 0.950 µg/mL
[2]; 1 days
  Stability of Plant-Derived Cannabinoid Compounds in AB White, 8° C.: 0.956 µg/mL
[2]; 2 days
  Stability of Plant-Derived Cannabinoid Compounds in AB White, 8° C.: 0.954 µg/mL
[2]; 3 days
  Stability of Plant-Derived Cannabinoid Compounds in AB White, 8° C.: 0.934 µg/mL
[2]; 5 days
  Stability of Plant-Derived Cannabinoid Compounds in AB White, 8° C.: 0.956 µg/mL
[2]; 8 days
  Stability of Plant-Derived Cannabinoid Compounds in AB White, 8° C.: 0.949 µg/mL
[2]; 9 days
  Stability of Plant-Derived Cannabinoid Compounds in AB White, 8° C.: 0.937 µg/mL
[2]; 10 days
  Stability of Plant-Derived Cannabinoid Compounds in AB White, 8° C.: 0.960 µg/mL
[2]; 11 days
  Stability of Plant-Derived Cannabinoid Compounds in AB White, 8° C.: 0.929 µg/mL
[2]; 12 days
  Stability of Plant-Derived Cannabinoid Compounds in AB White, 8° C.: 0.942 µg/mL
[2]; 15 days
  Stability of Plant-Derived Cannabinoid Compounds in AB White, 8° C.: 0.944 µg/mL
[2]; 16 days
  Stability of Plant-Derived Cannabinoid Compounds in AB White, 8° C.: 0.932 µg/mL
[2]; 17 days
  Stability of Plant-Derived Cannabinoid Compounds in AB White, 8° C.: 0.951 µg/mL
[2]; 18 days
  Stability of Plant-Derived Cannabinoid Compounds in AB White, 8° C.: 0.950 µg/mL
[2]; 19 days
  Stability of Plant-Derived Cannabinoid Compounds in AB White, 8° C.: 0.959 µg/mL
[2]; 22 days
  Stability of Plant-Derived Cannabinoid Compounds in AB White, 8° C.: 0.960 µg/mL
[2]; 23 days
  Stability of Plant-Derived Cannabinoid Compounds in AB White, 8° C.: 0.931 µg/mL
[2]; 24 days
  Stability of Plant-Derived Cannabinoid Compounds in AB White, 8° C.: 0.926 µg/mL
[2]; 25 days
  Stability of Plant-Derived Cannabinoid Compounds in AB White, 8° C.: 0.957 µg/mL
[2]; 26 days
  Stability of Plant-Derived Cannabinoid Compounds in AB White, 8° C.: 0.956 µg/mL
